From publication PMC8894198, “Biosynthetic Microcin J25 Exerts Strong Antibacterial, Anti-Inflammatory Activities, Low Cytotoxicity Without Increasing Drug-Resistance to Bacteria Target” (Frontiers in Immunology, 2022)
Converted amounts (≈) assume the structure as drawn. Where a SMILES comes first, the peptide text is derived from it. Bridges are numbered along the chain shown (N, C = ends).

Columns and labels:
E. coli K88 (ETEC K88) = assay: Killing curves (bactericidal activity at different growth phases); format: cell-based
Procedure: Figure 1 Bactericidal activity assay of MccJ25 against E coli K88. Different concentrations of E coli K88 were cultured in LB containing different levels of MccJ25. E coli K88 cells (5 × 10^5 CFU/mL) were incubated and grown to different stages, including early-log (A), late-log (B) and stationary (C) phases. Additionally, bacteria, 5 × 10^8 CFU/mL, were cultured and grown to early-log (D), late-log (E) and stationary (F) phases. Data are means ± standard error of mean from 6 biological replicates.
A purified single colony of E. coli K88 was inoculated into 5 mL of LB. Then, culture was incubated at 37◦C with shaking at 200 rpm overnight. The next day, the culture was diluted 1:100 in fresh LB and incubated at 37◦C with shaking at 200 rpm again. To test antimicrobial activity, the bacteria were grown until they reached log phase. […] The cultures were serially diluted with sterilized saline water and plated on LB agar at different hours. The plates were incubated at 37◦C overnight to count colony. Colonies were counted to determine CFU/mL. The experiment was conducted with two replicates in three independent trials. A Live/Dead BacLight Bacterial Viability Kit 7 (Molecular Probes, Inc., Eugene) was used to test bacterial viability. […] E. coli K88 cultures were incubated at 37◦C for 2 h and then incubated in the dark at ambient temperature with SYTO 9 and propidium iodide for 15 min. Bacteria were observed using a fluorescence microscope (EVOS XL Cell Imaging System).

E. coli K88 [1] = assay: Sytox Green influx (membrane permeabilization); format: cell-based; conditions: 0.5 × to 5 × MIC, dose dependent; ex 485 nm, em 520 nm
Procedure: E. coli K88 cells were incubated at 37°C until growth reached the mid-log phase stage, and the cells were washed and resuspended in 10 mM NaH2PO4, pH 7.2 (2 × 10^7/mL). Cells were then incubated with […] Sytox Green for 15 min in a light-free environment.

E. coli ATCC25922 = assay: MIC/MBC broth dilution, standard strain; format: cell-based
Procedure: (§1) The minimum inhibitory concentration (MIC) refers to the lowest concentration that can produce a significant hindrance to bacterial growth in a drug sensitivity test by adopting a broth dilution, with certain refinements and modifications based on the previous description ([25], [26]). In short, MccJ25 was dissolved in sterilized distilled water (SDW), serial 2-fold dilutions were prepared in Mueller-Hinton broth (MHB) through a 96-well microtiter plate, and the final concentration of MccJ25 was maintained in the range of 0.003125 to 256 μg/mL. Then, 2 μL of standard and clinically relevant overnight broth cultures of bacteria were inoculated into each well at a concentration of 5 × 10^6 CFU/mL. Microtiter plates were incubated at 37°C for one full day. Two groups were set up: positive (medium with inoculum) and negative (medium only) controls. The minimum bactericidal concentration (MBC) was measured in LB medium and refers to the first drug dilution value at which the initial bacterial concentration was reduced by 99.99%. The final analysis was determined by the results of three replicated and independent experiments. To further assess and clarify the antimicrobial activity of MccJ25, the protective ability against E. coli adhesion, live/dead assay, and killing curve were performed, the detailed methods were provided in Supplementary Materials .

[2] = system: Salmonella enteritidis CMCC50336; assay: MIC/MBC broth dilution, standard strain; format: cell-based
Procedure: as §1

E. coli CVCC1515 = assay: MIC/MBC broth dilution, standard strain; format: cell-based
Procedure: as §1

[3] = system: Shigella flexneri CMCC51571; assay: MIC/MBC broth dilution, standard strain; format: cell-based; conditions: LB medium, 99.99% reduction; three independent experiments
Procedure: as §1

E. coli 1499 = assay: MIC/MBC broth dilution, standard strain; format: cell-based
Procedure: as §1

E. coli K88 [4] = assay: MIC variability (cross-resistance) after 5 days at sub-MIC; format: cell-based; conditions: bacterial cells treated with MccJ25 (0.25 × MIC) for 5 days
Procedure: A 1:100 dilution of the bacteria was performed daily in the above MHB. Aliquots of the culture medium were used daily for 5 days thereafter to determine the MICs of ampicillin, tetracycline, aureomycin, and kanamycin. This study was performed based on our previous study ([29]).

E. coli SWI 441 = assay: MIC/MBC, clinical isolate resistant to colistin sulfate, lincomycin and tilmicosin; format: cell-based; conditions: source pig stool
Procedure: as §1

E. coli BRO 528 = assay: as above; format: cell-based; conditions: source broiler stool
Procedure: as §1

E. coli SWI 541 = assay: as above; format: cell-based; conditions: source pig stool
Procedure: as §1

E. coli SWI 531 = assay: as above; format: cell-based; conditions: source pig tissue
Procedure: as §1

[5] = LPS neutralization, chromogenic limulus amebocyte lysate assay; format: biochemical, E. coli; conditions: 8 μg/mL MccJ25, LPS 1 EU/mL, 37°C, A405
Procedure: The neutralizing impacts of MccJ25 on LPS were assessed according to a color-emitting […] assay. Levels of E. coli LPS (1 EU/mL) were prepared and combined with various concentrations of MccJ25 (1 to 128 µg/mL) and inoculated in the wells of sterile microtiter plates at 37°C. Then, 50 μL of the above mixture was extracted, the same volume of […] reagent was added, and the mixture was incubated for 10 min at 37°C. […] The reaction was finished by adding 25% acetic acid, and finally, its absorbance value at 405 nm was measured.

[6] = LB medium, 99.99% reduction, three independent experiments
[7] = broth dilution in MHB, 37°C, one day, three independent experiments
[8] = broth dilution in MHB, 37°C, three independent experiments

For `CC[C@H](C)[C@H](NC(=O)CNC(=O)[C@@H](NC(=O)[C@H](Cc1ccccc1)NC(=O)[C@H](Cc1ccc(O)cc1)NC(=O)[C@@H]1CCC(=O)NCC(=O)NCC(=O)N[C@@H](C)C(=O)NCC(=O)N[C@@H](Cc2c[nH]cn2)C(=O)N[C@@H](C(C)C)C(=O)N2CCC[C@H]2C(=O)N1)C(C)C)C(=O)NCC(=O)N[C@H](C(=O)N1CCC[C@H]1C(=O)N[C@H](C(=O)N[C@@H](CO)C(=O)N[C@@H](Cc1ccccc1)C(=O)N[C@@H](Cc1ccc(O)cc1)C(=O)NCC(=O)O)[C@@H](C)CC)[C@@H](C)O` [MccJ25, microcin J25] (GGAGHVPEYFVGIGTPISFYG-OH; lactam N-8 (inferred); C-terminus assumed), the “time in which all inoculants were killed” value (E. coli K88 (ETEC K88); at the indicated MICs, stationary phase) was ≤ 6 h, the “time in which all inoculums were killed” value (E. coli K88 (ETEC K88); inoculum 5 × 10^5 CFU/mL, 2 × MIC, each growth period (early log, late log, stationary), LB, 37°C) was ≤ 4 h and the “reduction of bacterial count” value (E. coli K88 (ETEC K88); inoculum 5 × 10^5 CFU/mL, 4 × MIC, after 2 h incubation) was 5 log. The “reduction of bacterial count” value (E. coli K88 (ETEC K88); inoculum 5 × 10^5 CFU/mL, at the indicated MICs, at 2 h, all phases) was “approximately 4 log”, the “reduction of bacterial count” value (E. coli K88 (ETEC K88); inoculum 5 × 10^8 CFU/mL at log phase, 4 × MIC, 12 h) was 8 log and the “reduction of bacterial count” value (E. coli K88 (ETEC K88); inoculum 5 × 10^8 CFU/mL, 1 × MIC, within 7 h) was 6 log. The “Sytox Green fluorescence / membrane integrity” value (E. coli K88 [1]) was “membrane integrity was significantly disrupted”, the MBC (E. coli ATCC25922; [6]) was 0.500 µg/mL (≈ 0.237 µM) and the MIC (E. coli ATCC25922; [7]) was 0.125 µg/mL (≈ 0.0593 µM). The MIC/MBC (E. coli ATCC25922; ratio) was 0.250, the MBC [2, 6] was 4.000 µg/mL (≈ 1.9 µM) and the MIC [2, 7] was 2.000 µg/mL (≈ 0.949 µM). For the same compound, the MIC/MBC ([2]; ratio) was 0.500, the MBC (E. coli CVCC1515; [6]) was 2.000 µg/mL (≈ 0.949 µM) and the MIC (E. coli CVCC1515; [7]) was 0.500 µg/mL (≈ 0.237 µM). It also gave an MIC/MBC (E. coli CVCC1515; ratio) of 0.250, an MBC [3] of 0.500 µg/mL (≈ 0.237 µM) and an MBC (E. coli 1499; [6]) of 1.000 µg/mL (≈ 0.475 µM). For the same compound, the MIC (E. coli 1499; [7]) was 0.400 µg/mL (≈ 0.19 µM), the MIC/MBC (E. coli 1499; ratio) was 0.400 and the “change in the MICs of ciprofloxacin, ampicillin, tetracycline and kanamycin” value (E. coli K88 [4]) was “no changes were observed”. For the same compound, the MBC (E. coli SWI 441; [6]) was 0.500 µg/mL (≈ 0.237 µM), the MIC (E. coli SWI 441; [8]) was 0.060 µg/mL (≈ 0.0285 µM) and the MIC/MBC (E. coli SWI 441; ratio) was 0.120. It also gave an MBC (E. coli BRO 528; [6]) of 2.000 µg/mL (≈ 0.949 µM), an MIC (E. coli BRO 528; [8]) of 0.500 µg/mL (≈ 0.237 µM) and an MIC/MBC (E. coli BRO 528; ratio) of 0.250. It also gave an MBC (E. coli SWI 541; [6]) of 2.000 µg/mL (≈ 0.949 µM), an MIC (E. coli SWI 541; [8]) of 0.500 µg/mL (≈ 0.237 µM) and an MIC/MBC (E. coli SWI 541; ratio) of 0.250. The MBC (E. coli SWI 531; [6]) was 0.500 µg/mL (≈ 0.237 µM), the MIC (E. coli SWI 531; [8]) was 0.060 µg/mL (≈ 0.0285 µM) and the MIC/MBC (E. coli SWI 531; ratio) was 0.120. It also gave an LPS neutralization [5] of 92.59%.
